Reference: patent publication US11649255B2, “Indazoles as hematopoietic progenitor kinase 1 (HPK1) inhibitors and methods using same” (1st Biotherapeutics, Inc., priority 2020, dated 2023)

molecular target: recombinant human HPK1 (Homo sapiens (Human), UniProt Q92918); test: HPK1 kinase assay (ADP-Glo); format: biochemical; settings: 25 μM ATP, MBP substrate
Procedure, shortened: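 Activity was read as ADP formed, detected by ADP-Glo luminescence after the reaction of 5 ng recombinant human HPK1 with MBP and ATP (stocks 0.5 μg/μl and 25 μM) for 40 min at 30 °C. Buffer was Tris pH 7.5 with MgCl2, BSA and DTT, with compound in 0.5% DMSO. IC50 came from inhibition curves.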

Sequence of recombinant human HPK1 (Q92918 whole entry): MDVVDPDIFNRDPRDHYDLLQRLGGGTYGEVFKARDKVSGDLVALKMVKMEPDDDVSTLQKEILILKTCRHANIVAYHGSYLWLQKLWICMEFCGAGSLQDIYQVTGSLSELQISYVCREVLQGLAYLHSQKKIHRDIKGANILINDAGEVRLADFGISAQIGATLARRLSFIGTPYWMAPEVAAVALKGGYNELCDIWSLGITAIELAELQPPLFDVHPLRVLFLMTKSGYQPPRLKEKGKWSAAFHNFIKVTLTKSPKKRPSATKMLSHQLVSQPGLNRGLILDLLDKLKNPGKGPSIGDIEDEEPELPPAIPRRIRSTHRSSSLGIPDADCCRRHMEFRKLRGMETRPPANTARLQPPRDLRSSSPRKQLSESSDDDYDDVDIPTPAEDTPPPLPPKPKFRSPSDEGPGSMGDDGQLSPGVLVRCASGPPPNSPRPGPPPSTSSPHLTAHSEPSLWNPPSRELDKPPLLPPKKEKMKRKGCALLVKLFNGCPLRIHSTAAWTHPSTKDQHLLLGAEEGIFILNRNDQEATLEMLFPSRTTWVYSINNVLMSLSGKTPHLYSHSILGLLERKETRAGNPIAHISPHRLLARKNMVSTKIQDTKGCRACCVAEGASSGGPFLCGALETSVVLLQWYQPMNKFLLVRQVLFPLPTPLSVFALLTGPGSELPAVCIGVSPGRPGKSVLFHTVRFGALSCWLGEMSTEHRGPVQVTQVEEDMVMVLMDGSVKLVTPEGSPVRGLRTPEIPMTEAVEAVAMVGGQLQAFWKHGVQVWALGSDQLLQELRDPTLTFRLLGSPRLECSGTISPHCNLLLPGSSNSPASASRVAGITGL

IC50, < 100 nM:
O=C(Nc1cn2cc(-c3c(Cl)c(F)c(SCCO)c4[nH]ncc34)ccc2n1)[C@@H]1C[C@@H]1F [Example 290, (1S,2S)-N-(6-(5-chloro-6-fluoro-7-((2-hydroxyethyl)thio)-1H-indazol-4-yl)imidazo[1,2-a]pyridin-2-yl)-2-fluorocyclopropane-1-carboxamide]
COCCSc1c(F)c(Cl)c(-c2ccc3nc(NC(=O)[C@@H]4C[C@@H]4F)sc3c2)c2cn[nH]c12 [Example 71, (1S,2S)-N-(6-(5-chloro-6-fluoro-7-((2-methoxyethyl)thio)-1H-indazol-4-yl)benzo[d]thiazol-2-yl)-2-]
CCc1c(F)c(N(CC)CC)c2[nH]ncc2c1-c1ccn2nc(NC(=O)[C@@H]3C[C@@H]3F)cc2c1 [Example 518, (1S,2S)-N-(5-(7-(diethylamino)-5-ethyl-6-fluoro-1H-indazol-4-yl)pyrazolo[1,5-a]pyridin-2-yl)-2-fluorocyclopropane-1-carboxamide]
Cc1c(F)c(SCCO)c2[nH]ncc2c1-c1ccc2nc(NC(=O)[C@@H]3C[C@@H]3F)sc2n1 [Example 163, (1S,2S)-2-fluoro-N-(5-(6-fluoro-7-((2-hydroxyethyl)thio)-5-methyl-1H-indazol-4-yl)thiazolo[5,4-b]pyridin-2-yl)cyclopropane-1-carboxamide]
COc1c(F)c(Cl)c(-c2ccn3nc(NC(=O)[C@@H]4C[C@@H]4F)cc3c2)c2cn[nH]c12 [Example 492, (1S,2S)-N-(5-(5-chloro-6-fluoro-7-methoxy-1H-indazol-4-yl)pyrazolo[1,5-a]pyridin-2-yl)-2-fluorocyclopropane-1-carboxamide]
CSc1c(F)c(Cl)c(-c2ccc3nc(NC(=O)[C@@H]4C[C@@H]4F)cn3c2)c2cn[nH]c12 [Example 266, (1S,2S)-N-(6-(5-chloro-6-fluoro-7-(methylthio)-1H-indazol-4-yl)imidazo[1,2-a]pyridin-2-yl)-2-fluorocyclopropane-1-carboxamide]
CC(NC=O)c1c(F)c(Cl)c(-c2ccn3nc(NC(=O)[C@@H]4C[C@@H]4F)cc3c2)c2cn[nH]c12 (stereo partly drawn) [Example 659, (1S,2S)-N-(5-(5-chloro-6-fluoro-7-(1-formamidoethyl)-1H-indazol-4-yl)pyrazolo[1,5-a]pyridin-2-yl)-2-fluorocyclopropane-1-carboxamide]
Cc1c(F)c(S(C)(=O)=O)c2[nH]ncc2c1-c1ccn2nc(NC(=O)[C@@H]3C[C@@H]3F)cc2c1 [Example 489, (1S,2S)-2-fluoro-N-(5-(6-fluoro-5-methyl-7-(methylsulfonyl)-1H-indazol-4-yl)pyrazolo[1,5-a]pyridin-2-yl)cyclopropane-1-carboxamide]
O=C(Nc1cc2cc(-c3c(Br)c(F)cc4[nH]ncc34)ccn2n1)[C@@H]1C[C@@H]1F [Example 464, (1S,2S)-N-(5-(5-bromo-6-fluoro-1H-indazol-4-yl)pyrazolo[1,5-a]pyridin-2-yl)-2-fluorocyclopropane-1-carboxamide]
CNC(=O)C(C)c1c(F)c(Cl)c(-c2ccc3nc(NC(=O)[C@@H]4C[C@@H]4F)cn3c2)c2cn[nH]c12 (stereo partly drawn) [Example 433, (1S,2S)-N-(6-(5-chloro-6-fluoro-7-(1-(methylamino)-1-oxopropan-2-yl)-1H-indazol-4-yl)imidazo[1,2-a]pyridin-2-yl)-2-fluorocyclopropane-1-carboxamide]
COCC1CN(c2c(F)c(Cl)c(-c3ccn4nc(NC(=O)[C@@H]5C[C@@H]5F)cc4c3)c3cn[nH]c23)C1 [Example 627, (1S,2S)-N-(5-(5-chloro-6-fluoro-7-(3-(methoxymethyl)azetidin-1-yl)-1H-indazol-4-yl)pyrazolo[1,5-a]pyridin-2-yl)-2-fluorocyclopropane-1-carboxamide]
O=C(Nc1cc2cc(-c3c(Cl)c(F)c(OCC4CCCO4)c4[nH]ncc34)ccn2n1)[C@@H]1C[C@@H]1F (stereo partly drawn) [Example 507, (1S,2S)-N-(5-(5-chloro-6-fluoro-7-((tetrahydrofuran-2-yl)methoxy)-1H-indazol-4-yl)pyrazolo[1,5-a]pyridin-2-yl)-2-fluorocyclopropane-1-carboxamide]
O=C(Nc1cc2cc(-c3c(Cl)c(F)c(NC4CCC(O)C4)c4[nH]ncc34)ccn2n1)[C@@H]1C[C@@H]1F (stereo partly drawn) [Example 559, (1S,2S)-N-(5-(5-chloro-6-fluoro-7-((3-hydroxycyclopentyl)amino)-1H-indazol-4-yl)pyrazolo[1,5-a]pyridin-2-yl)-2-fluorocyclopropane-1-carboxamide]
CN(C)C(=O)c1ccn(-c2c(F)c(Cl)c(-c3ccc4nc(NC(=O)[C@@H]5C[C@@H]5F)cn4c3)c3cn[nH]c23)c1 [Example 400, 1-(5-chloro-6-fluoro-4-(2-((1S,2S)-2-fluorocyclopropane-1-carboxamido)imidazo[1,2-a]pyridin-6-yl)-1H-indazol-7-yl)-N,N-dimethyl-1H-pyrrole-3-carboxamide]
O=C(Nc1cc2cc(-c3c(Cl)c(F)c(N4CCC4)c4[nH]ncc34)ccn2n1)[C@@H]1C[C@@H]1F [Example 501, (1S,2S)-N-(5-(7-(azetidin-1-yl)-5-chloro-6-fluoro-1H-indazol-4-yl)pyrazolo[1,5-a]pyridin-2-yl)-2-fluorocyclopropane-1-carboxamide]
CN(C)c1c(F)c(C(F)(F)F)c(-c2ccc3nc(NC(=O)[C@@H]4C[C@@H]4F)sc3c2)c2cn[nH]c12 [Example 130, (1S,2S)-N-(6-(7-(dimethylamino)-6-fluoro-5-(trifluoromethyl)-1H-indazol-4-yl)benzo[d]thiazol-2-yl)-2-fluorocyclopropane-1-carboxamide]
CC(=O)NC(C)c1c(F)c(Cl)c(-c2ccn3nc(NC(=O)[C@@H]4C[C@@H]4F)cc3c2)c2cn[nH]c12 (stereo partly drawn) [Example 663, (1S,2S)-N-(5-(7-(1-acetamidoethyl)-5-chloro-6-fluoro-1H-indazol-4-yl)pyrazolo[1,5-a]pyridin-2-yl)-2-fluorocyclopropane-1-carboxamide]
COc1c(F)c(C)c(-c2ccn3nc(NC(=O)[C@@H]4C[C@@H]4F)cc3c2)c2cn[nH]c12 [Example 491, (1S,2S)-2-fluoro-N-(5-(6-fluoro-7-methoxy-5-methyl-1H-indazol-4-yl)pyrazolo[1,5-a]pyridin-2-yl)cyclopropane-1-carboxamide]
CSc1c(F)c(F)c2[nH]ncc2c1-c1ccc2nc(NC(=O)[C@@H]3C[C@@H]3F)cn2c1 [Example 304, (1S,2S)-N-(6-(6,7-difluoro-5-(methylthio)-1H-indazol-4-yl)imidazo[1,2-a]pyridin-2-yl)-2-fluorocyclopropane-1-carboxamide]
CC(NC(=O)C(F)F)c1c(F)c(Cl)c(-c2ccc3nc(NC(=O)[C@@H]4C[C@@H]4F)cn3c2)c2cn[nH]c12 (stereo partly drawn) [Example 441, (1S,2S)-N-(6-(5-chloro-7-(1-(2,2-difluoroacetamido)ethyl)-6-fluoro-1H-indazol-4-yl)imidazo[1,2-a]pyridin-2-yl)-2-fluorocyclopropane-1-carboxamide]
C[S+]([O-])c1c(F)c(Cl)c(-c2ccn3nc(NC(=O)[C@@H]4C[C@@H]4F)cc3c2)c2cn[nH]c12 (stereo partly drawn) [Example 538, (1S,2S)-N-(5-(5-chloro-6-fluoro-7-(methylsulfinyl)-1H-indazol-4-yl)pyrazolo[1,5-a]pyridin-2-yl)-2-fluorocyclopropane-1-carboxamide]
CC(=O)Nc1c(F)c(Cl)c(-c2ccc3nc(NC(=O)[C@@H]4C[C@@H]4F)cn3c2)c2cn[nH]c12 [Example 301]

IC50, 101 to 500 nM:
CN(C)c1c(F)cc2[nH]ncc2c1-c1ccn2nc(NC(=O)[C@@H]3C[C@@H]3F)cc2c1 [Example 454, (1S,2S)-N-(5-(5-(dimethylamino)-6-fluoro-1H-indazol-4-yl)pyrazolo[1,5-a]pyridin-2-yl)-2-fluorocyclopropane-1-carboxamide]
CCc1ccc2[nH]ncc2c1-c1ccc2nc(NC(=O)C3CC3)sc2c1 [Example 28, N-(6-(5-ethyl-1H-indazol-4-yl)benzo[d]thiazol-2-yl)cyclopropanecarboxamide]
CS(=O)(=O)c1c(F)c(Cl)c(-c2ccc3nc(NC(=O)[C@@H]4C[C@@H]4F)cn3c2)c2cn[nH]c12 [Example 267, (1S,2S)-N-(6-(5-chloro-6-fluoro-7-(methylsulfonyl)-1H-indazol-4-yl)imidazo[1,2-a]pyridin-2-yl)-2-fluorocyclopropane-1-carboxamide]

IC50, > 1000 nM:
CP(C)(=O)c1c(F)c(Cl)c(-c2ccc3nc(NC(=O)[C@@H]4C[C@@H]4F)sc3c2)c2cn[nH]c12 [Example 60, (1S,2S)-N-(6-(5-chloro-7-(dimethylphosphoryl)-6-fluoro-1H-indazol-4-yl)benzo[d]thiazol-2-yl)-2-fluorocyclopropane-1-carboxamide]
Cc1ccc2[nH]ncc2c1-c1ccc2nc(NC(=O)c3ccccc3)sc2c1 [Example 8, N-(6-(5-methyl-1H-indazol-4-yl)benzo[d]thiazol-2-yl)benzamide]
CN(C)C(=O)c1c(F)cc2[nH]ncc2c1-c1ccc2nc(NC(=O)[C@@H]3C[C@@H]3F)sc2c1 [Example 145, 6-fluoro-4-(2-((1S,2S)-2-fluorocyclopropane-1-carboxamido)benzo[d]thiazol-6-yl)-N,N-dimethyl-1H-indazole-5-carboxamide]
C=Cc1n[nH]c2cc(F)c(C)c(-c3ccc4nc(NC(=O)[C@@H]5C[C@@H]5F)sc4c3)c12 [Example 52, (1S,2S)-2-fluoro-N-(6-(6-fluoro-5-methyl-3-vinyl-1H-indazol-4-yl)benzo[d]thiazol-2-yl)cyclopropane-1-carboxamide]
CSc1n[nH]c2cc(F)c(C)c(-c3ccc4nc(NC(=O)[C@@H]5C[C@@H]5F)sc4n3)c12 [Example 148, (1S,2S)-2-fluoro-N-(5-(6-fluoro-5-methyl-3-(methylthio)-1H-indazol-4-yl)thiazolo[5,4-b]pyridin-2-yl)cyclopropane-1-carboxamide]
